Data from PubChem BioAssay (NCI).
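Cultured in 96-well plates, cells were exposed to test compound for 48 hours across five concentrations. Here, GI50 denotes the concentration required for 50% inhibition of growth. TGI marks complete inhibition of growth.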

Assays:
Assay in all cases: growth of human tumour cells (NCI), 48 h
[1] = system: MCF7 breast
[2] = system: A498 renal
[3] = system: UO-31 renal
[4] = system: SNB-75 CNS
[5] = system: T-47D breast
[6] = system: HL-60(TB) leukemia
[7] = system: DU-145 prostate
[8] = system: HT29 colon
[9] = system: HCT-15 colon
[10] = system: HCC-2998 colon
[11] = system: RXF 393 renal
[12] = system: RPMI-8226 leukemia
[13] = system: KM12 colon
[14] = system: NCI-H23 lung
[15] = system: OVCAR-4 ovarian
[16] = system: SK-MEL-5 melanoma
[17] = system: SF-295 CNS
[18] = system: OVCAR-3 ovarian
[19] = system: MDA-MB-435
[20] = system: BT-549 breast
[21] = system: A549 NSCLC
[22] = system: UACC-62 melanoma
[23] = system: TK-10 renal
[24] = system: HCT-116 colon
[25] = system: HOP-62 NSCLC
[26] = system: NCI-H226 lung
[27] = system: SW-620 colon
[28] = system: MDA-MB-231 breast
[29] = system: OVCAR-8 ovarian
[30] = system: PC-3 prostate
[31] = system: NCI/ADR-RES ovarian
[32] = system: OVCAR-5 ovarian
[33] = system: COLO 205 colon
[34] = system: K-562 leukemia
[35] = system: SNB-19 CNS
[36] = system: NCI-H460 lung
[37] = system: SN12C renal
[38] = system: CCRF-CEM leukemia
[39] = system: M14 melanoma
[40] = system: SK-MEL-2 melanoma
[41] = system: SK-MEL-28 melanoma
[42] = system: IGROV1 ovarian
[43] = system: HOP-92 NSCLC
[44] = system: SF-268 CNS
[45] = system: UACC-257 melanoma
[46] = system: MOLT-4 leukemia
[47] = system: U251 CNS
[48] = system: HS 578T breast
[49] = system: SF-539 CNS
[50] = system: SK-OV-3 ovarian
[51] = system: ACHN renal
[52] = system: LOX IMVI melanoma
[53] = system: 786-0 renal
[54] = system: EKVX NSCLC
[55] = system: MALME-3M melanoma
[56] = system: NCI-H522 lung
[57] = system: SR leukemia
[58] = system: CAKI-1 renal

In the case of CCS(=O)(=O)Nc1ccc(Oc2ccc(F)cc2F)c(-c2cn(C)c(=O)c3[nH]ccc23)c1, the GI50 [1] was under 10 nM, the TGI [1] was 14300 nM and the GI50 [2] was 157 nM. For the same compound, the TGI [2] was 4010 nM, the GI50 [3] was under 10 nM and the TGI [3] was 12000 nM. For the same compound, the GI50 [4] was under 10 nM, the TGI [4] was 986 nM and the GI50 [5] was 25.3 nM. The TGI [5] was 30100 nM, the GI50 [6] was under 10 nM and the TGI [6] was 249 nM. For the same compound, the GI50 [7] was 2880 nM, the TGI [7] was 31400 nM and the GI50 [8] was under 10 nM. The TGI [8] was 14100 nM, the GI50 [9] was 40.4 nM and the TGI [9] was 19500 nM. For the same compound, the GI50 [10] was 34.2 nM, the TGI [10] was 1380 nM and the GI50 [11] was 1620 nM. For the same compound, the TGI [11] was 14100 nM, the GI50 [12] was under 23.2 nM and the TGI [12] was 17500 nM. It also gave a GI50 [13] of 109 nM, a TGI [13] of 18200 nM and a GI50 [14] of 95.6 nM. The TGI [14] was 13500 nM, the GI50 [15] was 275 nM and the TGI [15] was 37000 nM. It also gave a GI50 [16] of 72.7 nM, a TGI [16] of 7290 nM and a GI50 [17] of 74.2 nM. For the same compound, the TGI [17] was 20100 nM, the GI50 [18] was 40.2 nM and the TGI [18] was 19600 nM. For the same compound, the GI50 [19] was under 11.2 nM, the TGI [19] was 13300 nM and the GI50 [20] was 366 nM. For the same compound, the TGI [20] was 21300 nM, the GI50 [21] was 152 nM and the TGI [21] was 28100 nM. For the same compound, the GI50 [22] was under 10 nM, the TGI [22] was 6280 nM and the GI50 [23] was under 10 nM. The TGI [23] was 1250 nM, the GI50 [24] was 32.1 nM and the TGI [24] was 12800 nM. For the same compound, the GI50 [25] was under 24.5 nM, the TGI [25] was 26200 nM and the GI50 [26] was 2460 nM. The TGI [26] was 20200 nM, the GI50 [27] was 1650 nM and the TGI [27] was 25800 nM. It also gave a GI50 [28] of 49.4 nM, a TGI [28] of 17500 nM and a GI50 [29] of 253 nM. The TGI [29] was 43100 nM, the GI50 [30] was 65.6 nM and the TGI [30] was 49400 nM. The GI50 [31] was 561 nM, the TGI [31] was 39400 nM and the GI50 [32] was 1290 nM. It also gave a TGI [32] of 34700 nM, a GI50 [33] of under 10 nM and a TGI [33] of 6290 nM. It also gave a GI50 [34] of 32.2 nM, a TGI [34] of over 62600 nM and a GI50 [35] of 310 nM. For the same compound, the TGI [35] was 30900 nM, the GI50 [36] was 302 nM and the TGI [36] was 19300 nM. For the same compound, the GI50 [37] was 981 nM, the TGI [37] was 31200 nM and the GI50 [38] was 162 nM. It also gave a TGI [38] of over 60000 nM, a GI50 [39] of under 13.8 nM and a TGI [39] of 17000 nM. For the same compound, the GI50 [40] was 761 nM, the TGI [40] was 15900 nM and the GI50 [41] was 1640 nM. For the same compound, the TGI [41] was 21000 nM, the GI50 [42] was 32.7 nM and the TGI [42] was 20500 nM. It also gave a TGI [43] of 28300 nM, a GI50 [44] of 1570 nM and a TGI [44] of 53200 nM. For the same compound, the GI50 [45] was 44.8 nM, the TGI [45] was 23100 nM and the GI50 [46] was 408 nM. It also gave a TGI [46] of 15600 nM, a GI50 [47] of 293 nM and a TGI [47] of 16800 nM. It also gave a GI50 [48] of under 18.3 nM, a TGI [48] of 36500 nM and a GI50 [49] of 13.5 nM. It also gave a TGI [49] of 16100 nM, a GI50 [50] of under 10.9 nM and a TGI [50] of 6200 nM. For the same compound, the GI50 [51] was 153 nM, the TGI [51] was 27200 nM and the GI50 [52] was 12.4 nM. It also gave a TGI [52] of 905 nM, a GI50 [53] of 192 nM and a TGI [53] of 18100 nM. For the same compound, the GI50 [54] was 196 nM, the TGI [54] was 31900 nM and the GI50 [55] was 202 nM. The TGI [55] was 12900 nM, the GI50 [56] was under 10 nM and the TGI [56] was 5920 nM. For the same compound, the GI50 [57] was 44.4 nM and the TGI [57] was 30700 nM.

COc1c(C)cnc(Cn2cnc3c(Cl)nc(N)nc32)c1C was tested, and the GI50 [1] was 40.2 nM, the TGI [1] was over 100000 nM and the GI50 [2] was 679 nM. It also gave a TGI [2] of 23400 nM, a GI50 [3] of 141 nM and a TGI [3] of over 47400 nM. For the same compound, the GI50 [4] was 3130 nM, the TGI [4] was over 100000 nM and the GI50 [5] was 110 nM. For the same compound, the TGI [5] was over 100000 nM, the GI50 [6] was 245 nM and the GI50 [7] was 70.1 nM. The TGI [7] was over 100000 nM, the GI50 [8] was 65.4 nM and the TGI [8] was over 100000 nM. For the same compound, the GI50 [9] was 107 nM, the TGI [9] was 26700 nM and the GI50 [10] was 457 nM. It also gave a TGI [10] of 10700 nM, a GI50 [11] of 799 nM and a TGI [11] of over 100000 nM. For the same compound, the GI50 [12] was 333 nM, the TGI [12] was over 100000 nM and the GI50 [13] was 85.4 nM. The GI50 [14] was 262 nM, the TGI [14] was 19800 nM and the GI50 [15] was 7170 nM. It also gave a TGI [15] of over 100000 nM, a GI50 [16] of 557 nM and a TGI [16] of 15900 nM. The GI50 [17] was 94.8 nM, the GI50 [18] was 658 nM and the TGI [18] was over 100000 nM. The GI50 [19] was 179 nM, the TGI [19] was 40100 nM and the GI50 [20] was 1430 nM. It also gave a TGI [20] of over 100000 nM, a GI50 [21] of 179 nM and a TGI [21] of over 100000 nM. The GI50 [22] was 301 nM, the TGI [22] was 6950 nM and the GI50 [23] was 88.4 nM. The TGI [23] was over 100000 nM, the GI50 [24] was 120 nM and the TGI [24] was over 100000 nM. The GI50 [25] was 405 nM, the TGI [25] was over 100000 nM and the GI50 [26] was 594 nM. For the same compound, the TGI [26] was over 100000 nM, the GI50 [27] was 113 nM and the TGI [27] was over 100000 nM. It also gave a GI50 [28] of 559 nM, a TGI [28] of over 72900 nM and a GI50 [29] of 323 nM. For the same compound, the TGI [29] was over 100000 nM, the GI50 [30] was 359 nM and the TGI [30] was over 100000 nM. It also gave a GI50 [31] of 509 nM, a TGI [31] of over 100000 nM and a GI50 [32] of 1130 nM. It also gave a TGI [32] of over 100000 nM, a GI50 [33] of 218 nM and a GI50 [34] of 187 nM. It also gave a TGI [34] of over 100000 nM, a GI50 [35] of 480 nM and a TGI [35] of over 100000 nM. The GI50 [36] was 97.4 nM, the TGI [36] was over 100000 nM and the GI50 [58] was 397 nM. The TGI [58] was over 100000 nM, the GI50 [37] was 336 nM and the TGI [37] was over 100000 nM. The GI50 [38] was 97 nM, the TGI [38] was over 100000 nM and the GI50 [39] was 478 nM. The TGI [39] was over 100000 nM, the GI50 [40] was 434 nM and the TGI [40] was over 59500 nM. It also gave a GI50 [41] of 546 nM, a TGI [41] of over 83400 nM and a GI50 [42] of 455 nM. It also gave a TGI [42] of over 100000 nM, a GI50 [43] of 467 nM and a TGI [43] of 2800 nM. It also gave a GI50 [44] of 708 nM, a TGI [44] of over 100000 nM and a GI50 [45] of 297 nM. For the same compound, the TGI [45] was 9570 nM, the GI50 [46] was 281 nM and the TGI [46] was over 100000 nM. It also gave a GI50 [47] of 415 nM, a TGI [47] of over 100000 nM and a GI50 [48] of 3530 nM. For the same compound, the TGI [48] was over 100000 nM, the GI50 [49] was 605 nM and the TGI [49] was over 100000 nM. For the same compound, the GI50 [50] was 230 nM, the TGI [50] was over 70600 nM and the GI50 [51] was 289 nM. For the same compound, the TGI [51] was over 100000 nM, the GI50 [52] was 290 nM and the TGI [52] was 4050 nM. For the same compound, the GI50 [53] was 937 nM, the TGI [53] was over 100000 nM and the GI50 [55] was 380 nM. The TGI [55] was 58300 nM, the GI50 [56] was 261 nM and the TGI [56] was 12900 nM. It also gave a GI50 [57] of 117 nM and a TGI [57] of over 100000 nM.
